Laboratory results from patent EP4700095A1, “INK COMPOSITION FOR INK-JET PRINTING” (Sakata INX Corporation, priority 2023, dated 2024).

Assay: SP value (solubility parameter) calculated by formula 1
Conditions: 25°C (298 K), formula {(ΔH - RT)/(M/D)}^1/2

SP value | SMILES
12.6 (cal/cm^3)^1/2 | CC(O)CO (stereo not drawn) [Propylene glycol, 1,2-propanediol]
14.9 (cal/cm^3)^1/2 | OCC(O)CO [Glycerin, glycerin]
11.3 (cal/cm^3)^1/2 | CC(O)COC(C)COC(C)CO (stereo not drawn) [Tripropylene glycol]
